From PMC9137479, “The Class A β-Lactamase Produced by Burkholderia Species Compromises the Potency of Tebipenem against a Panel of Isolates from the United States” (Antibiotics, 2022)

How the values were obtained:
PenA1 = molecular target: T1, PenA1 (Burkholderia multivorans, UniProt A0A0H3KN52); experiment: steady-state inhibition kinetics; assay type: biochemical; conditions: read-out: PenA1; covalent acyl-enzyme; slow substrate; partition ratio method at 15 min; 10 mM PBS pH 7.4, ~25 °C (stated for hydrolysis curves)
T1 construct: gene ampC; purified class A beta-lactamase
T1 sequence (A0A0H3KN52 entry or part of it): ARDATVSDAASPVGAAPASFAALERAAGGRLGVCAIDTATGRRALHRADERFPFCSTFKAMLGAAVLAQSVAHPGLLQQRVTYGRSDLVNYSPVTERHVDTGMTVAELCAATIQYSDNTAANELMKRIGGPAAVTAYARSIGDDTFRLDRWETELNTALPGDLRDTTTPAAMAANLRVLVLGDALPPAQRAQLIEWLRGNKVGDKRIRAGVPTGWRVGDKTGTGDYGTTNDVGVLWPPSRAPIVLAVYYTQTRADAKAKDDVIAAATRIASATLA
Excerpt: steady-state inhibition kinetics on PenA1

AmpC1 = molecular target: T2, AmpC1 (Burkholderia multivorans, UniProt A0A0H3KQ39); experiment: steady-state inhibition kinetics; assay type: biochemical; conditions: covalent acyl-enzyme; not hydrolysed; 10 mM PBS pH 7.4, ~25 °C (stated for hydrolysis curves)
T2 construct: gene ampC; purified class C beta-lactamase
T2 sequence (A0A0H3KQ39 entry or part of it): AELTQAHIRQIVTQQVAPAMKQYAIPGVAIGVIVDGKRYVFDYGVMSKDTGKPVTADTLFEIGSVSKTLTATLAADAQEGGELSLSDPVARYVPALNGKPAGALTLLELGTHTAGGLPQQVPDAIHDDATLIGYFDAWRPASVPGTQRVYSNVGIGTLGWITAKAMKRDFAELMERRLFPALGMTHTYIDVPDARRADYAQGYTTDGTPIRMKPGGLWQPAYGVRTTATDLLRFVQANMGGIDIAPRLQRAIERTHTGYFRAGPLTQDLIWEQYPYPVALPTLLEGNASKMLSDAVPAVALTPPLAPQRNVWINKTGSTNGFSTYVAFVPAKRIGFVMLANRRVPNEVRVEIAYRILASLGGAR
Excerpt: steady-state inhibition kinetics on AmpC1

Molecule `C[C@@H](O)[C@H]1C(=O)N2C(C(=O)O)=C(SC3CN(C4=NCCS4)C3)[C@H](C)[C@H]12` [tebipenem] has a Ki (PenA1) of 4.7 ± 0.5 µM and a Ki (AmpC1) of 22 ± 2 µM.
